The values below come from ChEMBL document CHEMBL5620408, “Discovery of novel diarypyrimidine derivatives bearing six-membered non-aromatic heterocycles as potent HIV-1 NNRTIs with improved anti-resistance and drug-like profiles” (Eur J Med Chem, 2023).

As usually defined, the EC50 is the midpoint of the concentration-response curve. A lower EC50 goes with an effect from little substance. One may read the CC50 as the concentration at which the toxic effect on the cells reaches its halfway point. Broadly, the IC50 is the point on the concentration scale where inhibition reaches its midpoint. Low readings indicate greater potency, high ones weaker potency.

The subject of data set [1] is Human immunodeficiency virus 1. Briefly: Antiviral activity against HIV1 NL4-3 infected in MT4 cells. In kind it is functional, organism-based. Particulars: Human immunodeficiency virus 1, NL4-3, MT4.
The subject of a further data set is MT4. Nature of the data set: Cytotoxicity against human MT4 cells. Format: toxicity, cell-based.
A short description of data set [2]: Cytotoxicity against human MT4 cells assessed as reduction in cell viability by MTT assay. In kind it is toxicity, cell-based. (Formazan colour is commonly taken as a measure of viable cells.)
Data set [3] in a line: Selectivity index, ratio of CC50 for human MT4 cells to EC50 for antiviral activity against HIV IIIB.
The nature of data set [4]: Selectivity index, ratio of CC50 for human MT4 cells to EC50 for antiviral activity against HIV RES056.
For data set [5], the target named is Human immunodeficiency virus type 1 reverse transcriptase (Human immunodeficiency virus 1, UniProt Q72547). Briefly: Inhibition of wild type HIV-1 reverse transcriptase.
Data set [6] has as its system Human immunodeficiency virus 1. Nature of the data set: microbe, parasite or virus in culture. Particulars: Human immunodeficiency virus 1, IIIB, MT4.
Description: Antiviral activity against HIV1 IIIB infected in MT-4 cells assessed as viral induced cytopathic effect by MTT assay
Data set [7] has as its system Human immunodeficiency virus 1. Briefly: microbe, parasite or virus in culture. The following applies: Human immunodeficiency virus 1, RES056, MT4.
Description: Antiviral activity against HIV1 RES056 infected in MT-4 cells assessed as viral induced cytopathic effect by MTT assay

Where only a bound is given, the exact number is not on record here.

For the compound `Cc1cc(/C=C/C#N)cc(C)c1Oc1ccnc(Nc2ccc(N3CCN(S(=O)(=O)C4CC4)CC3)cc2)n1`, the EC50 is 6.12 nM in data set [1], 6 nM in data set [6] and > 216000 nM in data set [7]. The Activity result in the data set on MT4 is listed as “Non-Toxic”. The CC50 in data set [2] was 216000 nM. The selectivity ratio in data set [3] is 37300; in data set [4], < 1. The IC50 in data set [5] turned out to be 83 nM.

Turning to `Cc1cc(C#N)cc(C)c1Oc1ccnc(Nc2ccc(N3CCN(S(=O)(=O)C(C)C)CC3)c(F)c2)n1`, the values for the EC50 in data set [1], in data set [6] and in data set [7] were 24.6 nM, 8 nM and > 192000 nM, respectively. For the same compound, the Activity entry with MT4 is “Non-Toxic”. The CC50 in data set [2] is 192000 nM. The selectivity ratio is 24500 in data set [3] and < 1 in data set [4]. The compound also returned an IC50 in data set [5] of 140 nM.

On to `Cc1cc(/C=C/C#N)cc(C)c1Oc1ccnc(Nc2ccc(N3CCN(S(=O)(=O)C(C)C)CC3)cc2)n1`, for which the EC50 in data set [1] was 25.5 nM; in data set [6], 9 nM; in data set [7], > 1730 nM. In addition, the Activity entry with MT4 is reported as “Non-Toxic”. The CC50 in data set [2] came out at 1730 nM. For the same compound, the selectivity ratio in data set [3] is 193; in data set [4], < 1. Besides, half-maximal inhibition in data set [5] (IC50) required 130 nM.

Take `Cc1cc(C#N)cc(C)c1Oc1ccnc(Nc2ccc(N3CCN(S(=O)(=O)C4CC4)CC3)c(F)c2)n1`: the EC50 in data set [1] was 8.32 nM; in data set [6], 6 nM; in data set [7], > 239000 nM. Also, in the data set on MT4, the Activity entry was “Non-Toxic”. In addition, the CC50 in data set [2] is > 239000 nM. In data set [3], the selectivity ratio was > 40600. The compound further returned an IC50 in data set [5] of 77 nM.

Consider `CCS(=O)(=O)N1CCC(c2ccc(Nc3nccc(Oc4c(C)cc(/C=C/C#N)cc4C)n3)cc2)CC1`, for which the results for the EC50 in data set [1], in data set [6] and in data set [7] were 5.7 nM, 5 nM and > 38600 nM, respectively. Further, in the data set with MT4, the Activity entry is “Non-Toxic”. In addition, in data set [2], the CC50 was > 38600 nM. The selectivity ratio in data set [3] was > 7360. This compound also came in with an IC50 in data set [5] of 71 nM.

As to `Cc1cc(/C=C/C#N)cc(C)c1Oc1ccnc(Nc2ccc(N3CCN(S(=O)(=O)N(C)C)CC3)cc2)n1`, the EC50 in data set [1] was 28.9 nM; in data set [6], 8 nM; in data set [7], > 78100 nM. Besides, in the data set on MT4, the Activity result was “Non-Toxic”. Further, the CC50 in data set [2] is 78100 nM. In addition, the selectivity ratio in data set [3] was 10200; in data set [4] it was < 1. The compound further returned an IC50 in data set [5] of 140 nM.

Regarding `Cc1cc(/C=C/C#N)cc(C)c1Oc1ccnc(Nc2ccc(C3CCN(S(=O)(=O)N(C)C)CC3)cc2)n1`, the EC50 in data set [1] is 24.8 nM; in data set [6] it was 9 nM; in data set [7], > 6270 nM. Further, in the data set on MT4, the Activity result is recorded as “Non-Toxic”. For the same compound, the CC50 in data set [2] was 6270 nM. Besides, the selectivity ratio is 686 in data set [3] and < 1 in data set [4]. Besides, the IC50 in data set [5] amounted to 100 nM.

Consider `Cc1cn([C@H]2C[C@H](N=[N+]=[N-])[C@@H](CO)O2)c(=O)[nH]c1=O` [ZIDOVUDINE], for which the EC50 in data set [1] turned out to be 15.3 nM; in data set [7], 37 nM. Moreover, the Activity result in the data set on MT4 was “Non-Toxic”. Moreover, the CC50 in data set [2] is > 7480 nM.

Turning to `Cc1cc(C#N)cc(C)c1Oc1ccnc(Nc2ccc(N3CCN(S(C)(=O)=O)CC3)c(F)c2)n1`, the EC50 in data set [1] is 5.74 nM; in data set [6], 6 nM; in data set [7] it was > 7750 nM. In addition, the Activity entry in the data set with MT4 is given as “Non-Toxic”. For the same compound, in data set [2], the CC50 is 7750 nM. For the same compound, the selectivity ratio was 1240 in data set [3] and < 1 in data set [4]. This compound yielded an IC50 in data set [5] of 43 nM.

Consider `Cc1cc(/C=C/C#N)cc(C)c1Nc1ccnc(Nc2ccc(C#N)cc2)n1` [RILPIVIRINE], for which the midpoint of the response in data set [1], the EC50, lay at 0.6 nM. In addition, the Activity result in the data set with MT4 was “Non-Toxic”. For the same compound, the IC50 in data set [5] was 430 nM.
